The text below walks through data of US20180346518A1, “LYSOBACTIN FOR USE IN THE TREATMENT OF BOVINE MASTITIS” (BAYER ANIMAL HEALTH GMBH, priority 2015, published 2018).

The subject of data set [1] is Streptococcus uberis. As to the kind of experiment: microbroth dilution MIC (CLSI), MIC90. Type of data set: cell-based. As to the method:
(§1) The in vitro antibacterial activity of lysobactin against common mastitis pathogens such as Staphylococcus aureus, Coagulase-negative staphylococci, Streptococcus uberis, Streptococcus dvsgalactiae, Streptococcus agalactiae, Trueperella pyogenes, Escherichia coli, or Klebsiella pneumoniae was assessed by microbroth dilution MIC methodology as described by the Clinical and Laboratory Standards Institute (CLSI) in order to obtain the Minimal Inhibitory Concentration (MIC), which is defined as the lowest concentration of a substance that prevents visible growth of a bacterium. The results expressed as MIC90 are summarized in the following table, where the MIC90 is defined as the concentration at which the growth of at least 90% of the strains of a given species is inhibited.

A further data set concerns Streptococcus agalactiae. As to the kind of experiment: microbroth dilution MIC (CLSI), MIC90. Type of data set: cell-based. The method, then:
as §1

Data set [2] has as its system Coagulase-negative staphylococci. As to the kind of experiment: microbroth dilution MIC (CLSI), MIC90. Type of data set: cell-based. The method, then: as §1
In general terms: Dilution methods test growth across graded concentrations, often in twofold steps.

For data set [3], the system named is Streptococcus dysgalactiae. Nature of the data set: microbroth dilution MIC (CLSI), MIC90. Type of data set: cell-based. As to the method:
as §1

Another data set has as its system Klebsiella pneumoniae. Nature of the data set: microbroth dilution MIC (CLSI), MIC90. Type of data set: cell-based. The method, then:
as §1

The subject of a further data set is Staphylococcus aureus. As to the kind of experiment: microbroth dilution MIC (CLSI), MIC90. Type of data set: cell-based. As to the method: as §1
A further data set has as its system Trueperella pyogenes. Nature of the data set: microbroth dilution MIC (CLSI), MIC90. Type of data set: cell-based. The method, then: as §1
In another data set the test system is Escherichia coli. Nature of the data set: microbroth dilution MIC (CLSI), MIC90. Type of data set: cell-based. As to the method: as §1
The subject of data set [4] is Streptococcus uberis. As to the kind of experiment: Streptococcus uberis challenge mouse mastitis model. To be noted: 100, 200, 400 or 800 μg/gland hydrogel, 18 h after infection; all glands, with one exception in the highest dosing group. Type of data set: in vivo, lactating mice. As to the method: The efficacy of lysobactin (formulated in a hydrogel at pH 4.7) was tested in a Streptococcus uberis challenge mouse mastitis model. Twenty lactating mice were experimentally infected on the fourth pair of mammary glands with S. uberis around 12-15 days after birth of the offspring. Four hours after inoculation, groups of four mice were treated on the same glands with lysobactin at 100, 200, 400, or 800 μg/gland formulated as hydrogel. The fifth group was treated solely with the hydrogel vehicle as negative control. Eighteen hours after infection the animals were euthanized, the glands were removed, homogenized, and bacterial colony forming units (CFUs) were determined by established microbiological methods. Subsequently CFU/mL homogenate as well as CFU/g of gland were calculated. The detection limit was approximately 100 CFU/g of gland. Antimicrobial activity of lysobactin against Strep uberis was determined by comparison of the mean CFUs/gland of the different dosing groups and the negative control group.

The next data set concerns S. uberis. As to the kind of experiment: resistance development during serial passaging. Type of data set: cell-based, Streptococcus uberis. The conditions noted are these: constant sub-MIC exposure, 33 days. The method, then:
The appearance of MIC changes during constant exposure of bacteria to sub-MIC concentrations of lysobactin was assessed by serial passaging experiments. On the first day the MICs of S. aureus and S. uberis were assessed by microbroth dilution MIC methodology as described by the Clinical and Laboratory Standards Institute (CLSI). Each day for the following 33 consecutive days, bacteria from the well containing the highest concentrations allowing full growth were collected and used to inoculate new 96-well plates and to assess the MIC during constant exposure to lysobactin. The MIC obtained on each day was plotted over time. Rifampicin, which is known to result in quick changes of the MIC, was used as positive control.

In data set [5] the test system is Streptococcus uberis. Nature of the data set: dairy cow udder infection model with S. uberis. Type of data set: in vivo, lactating dairy cows. The method, then:
Seventy-two healthy lactating dairy cows were experimentally infected with the mastitis pathogen Streptococcus uberis on two udder quarters per cow. […] Treatments were randomly assigned to 41 (clinical) or 37 (microbiological) udder quarters in total, either 50 mg lysobactin per quarter (in 15/13 quarters), or 150 mg lysobactin (in 15/14 quarters), or Ubrolexin® (in 11/10 quarters) as positive control. The diseased quarters were treated with these intramammary formulations two times with an interval of 24 hours in between. Udders were clinically examined and milk samples were taken before treatment and several times after that until three weeks after the second administration. Milk was inspected visually for deviation in its consistency and samples were evaluated for presence of the challenge organism to confirm the diagnosis mastitis. Diseased udder quarters were considered microbiologically cured when Streptococcus uberis found in milk samples shortly before treatment could not be isolated from any milk sample taken within the time period between the seventh and the twenty-first day after the second treatment. Clinical cure was achieved when the local symptoms of mastitis completely disappeared or were at the most of very slight nature.

A further data set can be described thus: in vivo. Further details: species or system Holstein cows. The conditions noted are these: female, Holstein, bovine, 150 mg. As to the method: The study was designed as a non-pivotal study suitable to investigate the milk pharmacokinetics of the active substance lysobactin after single intracisternal application to lactating dairy cows. The active substance was provided in a paraffine based service formulation suitable for intracisternal application containing 150 mg lysobactin B in 10 g oily suspension. The test item was administered as single intracisternal treatment at a dose rate of 150 mg lysobactin to a single hind quarter of four lactating dairy cows each. The dairy cows on study (Holstein cows) represented the target population in age, lactation number, lactation stage, milk yield and breed. The animals were stalled in a tie-barn and were fed with standard feed for dairy cows consisting of corn and grass silage and milk performance feed. Milking was twice daily at a 12 hour interval using a bucket-type milking device. Frequent milk sampling was performed from the treated and respective control quarters prior to (0 h) and over a period of 168 h after treatment (0.5, 1, 2, 4, 6, 8, 12, 24, 36, 48, 60, 72, 84, 96, 120, 144, and 168 h) by manual stripping of the respective udder quarters. Milk samples at routine milking times were gathered prior to milking. Concentrations of the active substance lysobactin in milk were analyzed by HPLC with detection by tandem mass spectrometry. The limit of quantitation was 0.05 mg/L. Pharmacokinetic evaluation of milk concentration data was based on non-compartmental methods and comprised PK-parameters to adequately describe the absorption, distribution and elimination profile of the active substance in milk.

The mark [6] stands for this setting: 150 mg per quarter, Day 7 after second treatment.

Values after ≈ are worked out from the molar mass of the structure shown. Numbered stars: 1 amine (or outer) side, 2 acyl side, 3 side chain; on linkers, the order of the positions; unused ones are H or OH. Bridge positions count the residues as written; N and C are the ends. Square brackets hold non-standard residues; d marks the D form. Peptide text beside a SMILES is read from it. Phe(3R-OH) = O=C([C@@H](N[*:1])[C@H](O[*:3])c1ccccc1)[*:2]; Asn(3S-OH) = NC(=O)[C@@H](O)[C@H](N)C(=O)O; Leu(3R-OH) = CC(C)[C@@H](O)[C@H](N)C(=O)O; aThr = C[C@H](O)[C@H](N)C(=O)O A value given as a limit tells only on which side of the number the result lay.

As a reminder, the MIC90 is an inhibitory concentration at the 90% level, which refers to growth in some studies and to a panel of isolates in others. A word on the AUC(0-inf): it is the area under the concentration-time curve extrapolated to infinity. The low end stands for low exposure, the high end for high exposure. For orientation: Cmax means the highest concentration seen after dosing. For orientation: Tmax means the time at which the peak concentration occurs. As a reminder, the half-life is the time in which the quantity being followed falls by half. For orientation: AUC(0-t) means exposure summed from dosing to a finite time, without extrapolation to infinity. Read a high AUC(0-t) as high exposure. On to `CC[C@H](C)[C@@H]1NC(=O)[C@@H](CCCNC(=N)N)NC(=O)[C@H](CC(C)C)NC(=O)[C@H]([C@H](O)C(C)C)NC(=O)[C@@H](NC(=O)[C@H](CC(C)C)NC(=O)[C@H](N)CC(C)C)[C@@H](c2ccccc2)OC(=O)[C@H](CO)NC(=O)[C@H]([C@H](O)C(N)=O)NC(=O)CNC(=O)[C@H]([C@H](C)O)NC1=O` [lysobactin] (H-[dL]L[Phe(3R-OH)][Leu(3R-OH)]L[dR]I[aThr]G[Asn(3S-OH)]S; ester 3-C), for which the MIC90 against Streptococcus uberis [1] was 0.125 µg/mL (≈ 0.0979 µM); in the data set on Streptococcus agalactiae, 0.25 µg/mL (≈ 0.196 µM); in data set [2] it was 0.5 µg/mL (≈ 0.392 µM); in data set [3], 0.25 µg/mL (≈ 0.196 µM); with Klebsiella pneumoniae it was above 16 µg/mL; with Staphylococcus aureus it was 0.5 µg/mL (≈ 0.392 µM). Also, the MIC90 in the data set with Trueperella pyogenes is 0.5 µg/mL (≈ 0.392 µM); in the data set on Escherichia coli, above 16 µg/mL. In addition, in the data set with Streptococcus uberis [4], the “bacterial counts in glands” value is on record as < 10^2 CFU/g. For the same compound, the “MIC change during serial passaging” value against S. uberis is recorded as “remain constant”. Also, the microbiological cure rate in the data set on Streptococcus uberis [5] (50 mg per quarter, 2 treatments 24 h apart, Day 7 after second treatment) was determined as 84.6%; with Streptococcus uberis [5] (50 mg per quarter, Day 21 after second treatment), 92.31%; with Streptococcus uberis [5] (setting [6]), 71.4%; in the data set on Streptococcus uberis [5] (150 mg per quarter, Day 21 after second treatment), 85.71%. The “local clinical cure rate” value in the data set on Streptococcus uberis [5] (50 mg per quarter, Day 7 after second treatment) was found to be 86.7%; in the data set on Streptococcus uberis [5] (setting [6]), 86.7%. This compound also returned an AUC(0-inf) in “in vivo” of 2320 µg·h/mL. This compound also showed a Cmax in “in vivo” of 342 µg/mL. In addition, the Tmax in the data set “in vivo” amounted to 4 h. Moreover, the half-life in “in vivo” was 11.6 h. The results for the AUC(0-t) in “in vivo” (AUC0-12 h) and in the data set “in vivo” (AUC0-24 h) were 1870 µg·h/mL and 2210 µg·h/mL, respectively.
